Experimental data taken from the Deep4Chem optical property database.
Where “and” joins values, the source holds several entries; their conditions need not be identical. Equal values may be shown once.

Test: solvent given as SMILES

Work on `COC(=O)/C=C/c1sc(-c2ccc(N(C)C)cc2)c(-c2cccnc2)c1N` yielded an absorption maximum (in CC#N) of 415 nm.
With `Cc1cc(C)c(B(c2cc3ccc4cccc5ccc(c2)c3c45)c2c(C)cc(C)cc2C)c(C)c1` the absorption maximum (in Cc1ccccc1) was 413 nm.
With `OCCSc1cccc2[n+]1[B-](F)(F)n1c(c3cccc4cccc1c43)=N2` the absorption maximum (in C1CCOC1) was 485 nm, the absorption maximum (in CC#N) was 480 nm and the absorption maximum (in CCCCCC) was 484 nm. The absorption maximum (in Cc1ccccc1) was 487 nm and the absorption maximum (in ClCCl) was 482 nm and 453 nm.
With `C#CC1CN2CCC1CC2[C@@H](O)c1ccnc2ccc(OC)cc12` (stereo partly specified) the absorption maximum (in C1CCOC1) was 332 nm, the absorption maximum (in CC#N) was 332 nm and the absorption maximum (in CCCC#N) was 332 nm. The absorption maximum (in Cc1ccccc1) was 332 nm and the absorption maximum (in ClCCl) was 333 nm.
For `CCN(CC)c1ccc2cc(-c3ccc(-c4c5ccccc5c(-c5ccc(-c6cc7ccc(N(CC)CC)cc7oc6=O)cc5)c5ccccc45)cc3)c(=O)oc2c1`, the absorption maximum (in ClC(Cl)Cl) was 412 nm.
In the case of `COc1ccc2cc(C3=[N+]4C(=Nc5c(-c6ccc7ccccc7c6)c(Br)c(-c6ccc7cc(OC)ccc7c6)n5[B-]4(F)F)C(c4ccc5ccccc5c4)=C3Br)ccc2c1`, the absorption maximum (in ClCCl) is reported as 698 nm.
`CCCCCCCCC1(CCCCCCCC)c2ccccc2-c2ccc(-c3nnc(-c4ccc(-n5c6ccc(C(C)(C)C)cc6c6cc(C(C)(C)C)ccc65)cc4)o3)cc21` showed an absorption maximum (in Cc1ccccc1) of 352 nm.
For `CN(C)c1ccc(C2=CC3=C(c4ccc(C#N)cc4)[C@H]4c5ccccc5[C@]3(S2)c2ccccc24)cc1`, the absorption maximum (in ClCCl) was 436 nm.
Work on `CC1=C(C#Cc2ccc(N(c3ccccc3)c3ccccc3)cc2)C(C)=[N+]2C1=C(c1ccccc1)c1c(C)c(C#Cc3ccc(N(c4ccccc4)c4ccccc4)cc3)c(C)n1[B-]2(F)F` yielded an absorption maximum (in C1CCOC1) of 593 nm.
In the case of `N#Cc1ccc(-n2c(-c3ccc(-c4ccc(-c5nc6c7ccccc7c7ccccc7c6n5-c5ccc(C#N)c6ccccc56)c5ccccc45)c4ccccc34)nc3c4ccccc4c4ccccc4c32)c2ccccc12`, the absorption maximum (in ClCCl) is reported as 336 nm.
`Nc1ccc2c(-c3ccccc3C(=O)[O-])c3ccc(=[NH2+])cc-3oc2c1` gave an absorption maximum (in CC#N) of 500 nm, an absorption maximum (in CCO) of 499 nm and an absorption maximum (in CN(C)C=O) of 515 nm. For the same compound, the absorption maximum (in O) was 497 nm.
In the case of `Cc1cc2ccccc2c2c1c1ccccc1n2-c1ncccn1`, the absorption maximum (in ClCCl) is reported as 303 nm.
With `CCCCCCn1c2cc(/C=C(\C#N)c3cccs3)ccc2c2ccc(/C=C(\C#N)c3cccs3)cc21` the absorption maximum (in ClC(Cl)Cl) was 436.68 nm.
For `c1ccc(N(c2ccccc2)c2ccc(-c3ccc(-c4nc(-c5ccccn5)n(-c5ccccc5)n4)cc3)cc2)cc1`, the absorption maximum (in ClCCl) was 349 nm.
Work on `CN(C)c1ccc(C(=O)Nc2ccc([N+](=O)[O-])cc2)cc1` yielded an absorption maximum (in C1CCCCC1) of 337 nm, an absorption maximum (in C1CCOC1) of 353 nm and an absorption maximum (in CC#N) of 354 nm. It also gave an absorption maximum (in CCOCC) of 345 nm.
In the case of `Oc1cccc2ccccc12`, the absorption maximum (in C1CCCCC1) is reported as 303.49 nm.
`c1ccc(-c2nc(-c3ccccc3)nc(-c3ccc(-n4c5ccccc5c5c6c(ccc54)-c4ccccc4C6(c4ccccc4)c4ccccc4)cc3)n2)cc1` gave an absorption maximum (in Cc1ccccc1) of 372 nm.
Work on `CCCBr` yielded an absorption maximum (in CCCCCC) of 208 nm.
Compound `O=c1oc2ccccc2cc1/C=C/c1ccccc1` has an absorption maximum (in CC#N) of 351 nm.
For `CCCCCCCCOc1cc(/C=C/c2ccncc2)c(OCCCCCCCC)cc1/C=C/c1ccncc1`, the absorption maximum (in ClCCl) was 398 nm.
In the case of `CCN1c2ccc(-c3cc(C(F)(F)F)[nH]n3)cc2Sc2cc(-c3cc(C(F)(F)F)[nH]n3)ccc21`, the absorption maximum (in C1CCOC1) is reported as 336 nm, the absorption maximum (in CC#N) is reported as 336 nm and the absorption maximum (in CN(C)C=O) is reported as 336 nm. The absorption maximum (in ClCCl) was 334 nm and the absorption maximum (in c1ccccc1) was 336 nm.
`Cc1nc2c(ccc3c2sc(/C=C/c2ccc(-n4c5ccccc5c5ccccc54)cc2)[n+]3C)s1` gave an absorption maximum (in CO) of 446 nm and an absorption maximum (in ClC(Cl)Cl) of 488 nm.
Compound `CCOC(=O)CC[N+]1=c2cc3c(cc2CCC1)=Cc1c(c2ccc(N(C)C)cc2oc1=O)O3` has an absorption maximum (in CC#N) of 593 nm, an absorption maximum (in CO) of 591 nm and an absorption maximum (in ClCCl) of 606 nm. It also gave an absorption maximum (in O) of 587 nm.
`CN(C)c1ccc(/C=C/C=C/C2=NC3C(=O)NC(N)=NC3N2[C@H]2C[C@H](O)[C@@H](CO)O2)cc1` (stereo partly specified) gave an absorption maximum (in C1COCCO1) of 352 nm, an absorption maximum (in CC#N) of 349 nm and an absorption maximum (in CO) of 343 nm.
With `CC(=O)N(Cc1ccccn1)c1c2ccccc2c2c3c(cccc13)C(=O)N(Cc1ccccn1)C2=O` the absorption maximum (in C1CCOC1) was 436 nm, the absorption maximum (in CCCCCC) was 432 nm and the absorption maximum (in CCO) was 437 nm. It also gave an absorption maximum (in Cc1ccccc1) of 437 nm and an absorption maximum (in ClCCl) of 439 nm.
In the case of `CC(C)(C)c1ccc2c(c1)c1cc(C(C)(C)C)ccc1n2-c1ccc(-c2nc3c(C#N)ccc(C#N)c3nc2-c2ccc(-n3c4ccc(C(C)(C)C)cc4c4cc(C(C)(C)C)ccc43)cc2)cc1`, the absorption maximum (in Cc1ccccc1) is reported as 467 nm.
Work on `Nc1ccc2c(-c3ccc(C(=O)CN4C(=O)CCC4=O)cc3C(=O)[O-])c3ccc(=[NH2+])c(S(=O)(=O)[O-])c-3oc2c1S(=O)(=O)[O-]` yielded an absorption maximum (in O) of 494 nm.
`O=C([O-])c1cc(N2C(=O)C=CC2=O)ccc1-c1c2cc(F)c(=O)cc-2oc2cc([O-])c(F)cc12` gave an absorption maximum (in O) of 493 nm.
Work on `c1cc2cccc3c4cccc5cccc(c(c1)c23)c54` yielded an absorption maximum (in C1CCCCC1) of 435 nm, an absorption maximum (in ClC(Cl)Cl) of 438.5 nm and an absorption maximum (in ClCCl) of 438 nm.
Compound `CCCCCCN1C(=O)c2cccc3c(-c4ccc(-c5ccc(-c6ccc7c8c(cccc68)C(=O)N(CCCCCC)C7=O)s5)s4)ccc(c23)C1=O` has an absorption maximum (in ClC(Cl)Cl) of 428 nm.
In the case of `CCCCCCCCc1ccc(-c2c3cc(-c4cc(CCCCCCCC)c(-c5ccc(-c6sc(/C=C7\SC(N8CCCCC8)=NC7=O)cc6CCCCCCCC)s5)s4)sc3c(-c3ccc(CCCCCCCC)s3)c3cc(-c4cc(CCCCCCCC)c(-c5ccc(-c6sc(/C=C7\SC(N8CCCCC8)=NC7=O)cc6CCCCCCCC)s5)s4)sc23)s1`, the absorption maximum (in ClC(Cl)Cl) is reported as 475 nm.
For `C1=C(c2ccccc2)C=C(c2ccccc2)/C1=C/c1ccc2c(c1)Cc1ccccc1-2`, the absorption maximum (in C1CCOC1) was 384 nm.
In the case of `CCCCCCCCCC[n+]1cc2ccc3c[n+](CCCCCCCCCC)cc4ccc(c1)c2c34`, the absorption maximum (in CC#N) is reported as 418 nm.
`COc1ccc2cc(/C=C/c3nc(/C=C/c4ccc(N(C)C)cc4)cc(/C=C/c4ccc(N(C)C)cc4)n3)ccc2c1` gave an absorption maximum (in ClCCl) of 418 nm.
For `CC(C)Nc1cc2sc3cc(NC(C)C)c(F)cc3c(=O)c2cc1F`, the absorption maximum (in CCO) was 377 nm.
`C(=C\c1ccccc1)/c1ccccc1` gave an absorption maximum (in CC#N) of 307 nm.
Compound `Cc1cc(-c2nc(-c3ccccc3)nc(-c3ccccc3)n2)cc(C)c1N1c2ccccc2CCc2ccccc21` has an absorption maximum (in Cc1ccccc1) of 392.74 nm.
Compound `CCOC(=O)C1=C(N)n2c(=O)c3ccccc3c(=O)n2C1c1ccc([N+](=O)[O-])cc1` (stereo unspecified) has an absorption maximum (in CS(C)=O) of 358 nm.
In the case of `C(#Cc1ccc(C#Cc2ccc(C#Cc3ccccc3)cc2)cc1)c1ccccc1`, the absorption maximum (in ClC(Cl)Cl) is reported as 345 nm.
With `CCCCN1C(=O)c2cc(Br)c3c4c(Br)c(Br)c5c6c(cc(Br)c(c7c(Br)c(Br)c(c2c37)C1=O)c64)C(=O)N(CCCC)C5=O` the absorption maximum (in ClC(Cl)Cl) was 534 nm.
`CN(C)c1[se]c(-c2ccc(Cl)cc2)nc1-c1ccccc1` showed an absorption maximum (in ClC(Cl)Cl) of 360 nm.
Work on `C1=Cc2ccccc2C(=Cc2ccc(C=C3c4ccccc4C=Cc4ccccc43)cc2)c2ccccc21` yielded an absorption maximum (in C1CCOC1) of 333 nm.
Work on `Cc1cc(=O)oc2cc3c4ccccc4c4ccccc4c3cc12` yielded an absorption maximum (in C1CCOC1) of 378 nm, an absorption maximum (in CC#N) of 375 nm and an absorption maximum (in CO) of 377 nm. The absorption maximum (in CS(C)=O) was 378 nm, the absorption maximum (in Cc1ccccc1) was 381 nm and the absorption maximum (in ClC(Cl)Cl) was 362 nm.
Work on `N#Cc1ccc(C#Cc2ccc(C#Cc3ccccc3C#N)cc2C#N)cc1` yielded an absorption maximum (in ClC(Cl)Cl) of 340 nm.
`Nc1ccc(/C=C/c2ccccc2)cc1` showed an absorption maximum (in CC#N) of 318 nm and an absorption maximum (in CCCCCC) of 316 nm.
